Results from article PMC5567169 (Emerging Microbes & Infections, 2017).

How the values were obtained:
[1] = molecular target: T1, FtlA (Francisella tularensis, UniProt A0AAI8BGE8)
T1 construct: gene FTL_0430

[2] = molecular target: T1, FtlA; remark: listed apart in the source

T1 sequence (A0AAI8BGE8 1-293): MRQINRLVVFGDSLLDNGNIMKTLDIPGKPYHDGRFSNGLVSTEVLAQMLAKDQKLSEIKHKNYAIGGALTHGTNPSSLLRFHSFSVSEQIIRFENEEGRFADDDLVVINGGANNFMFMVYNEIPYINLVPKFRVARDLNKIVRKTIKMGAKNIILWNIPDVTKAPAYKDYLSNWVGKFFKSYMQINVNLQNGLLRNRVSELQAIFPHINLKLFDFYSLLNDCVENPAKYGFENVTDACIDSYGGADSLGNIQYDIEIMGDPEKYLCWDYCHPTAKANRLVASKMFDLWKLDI

SMILES	p-nitrophenyl ester hydrolysis by purified OMVs [1]	halo (clear zone) assay on agar plates [2]
CCCC(=O)Oc1ccc([N+](=O)[O-])cc1 [p-nitrophenyl butyrate (C4)]	OMVs of the wild-type LVS hydrolyzed p-nitrophenyl butyrate (C4) efficiently	
CCCC(=O)OCC(COC(=O)CCC)OC(=O)CCC [tributyrin]		E. coli strain harboring the FtlA-expressing plasmid (pST2000) showed a clear zone of halo
